Columns and labels:
Monochoria vaginalis = assay: Paddy field treatment (Test Example 3); type: in vivo; details: paddy pot, submerged 4 cm, dropped on water surface 10th day after transplantation, 1 kg active ingredient per hectare, evaluated 21st day
Summary of the method: (§1)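 Index scoring of herbicidal effect and rice safety 21 days after treatment. The wettable powder, dosed at 1 kg a.i./ha, was dripped onto flooded pots (4 cm water) 10 days after transplanting two-leaf Koshihikari rice. Weed seeds had been sown into the puddled soil.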

Scirpus juncoides = assay: Paddy field treatment (Test Example 3); type: in vivo; details: paddy pot, submerged 4 cm, dropped on water surface 10th day after transplantation, 1 kg active ingredient per hectare, evaluated 21st day
Summary of the method: as §1

Ammannia multiflora = assay: Paddy field treatment (Test Example 3); type: in vivo; details: paddy pot, submerged 4 cm, dropped on water surface 10th day after transplantation, 1 kg active ingredient per hectare, evaluated 21st day
Summary of the method: as §1

Setaria viridis [1] = assay: Upland field foliage treatment (Test Example 1); type: in vivo; details: foliage treatment 14th day after sowing, wettable powder, 1 kg active ingredient per hectare, evaluated 21st day after application
Summary of the method: (§2)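 Scored on an index 21 days after treatment: a high value on weeds means more herbicidal effect, and a low value on crops means more crop safety. Treatment was a foliar spray of water-diluted wettable powder at 1 kg a.i./ha, applied to plants 14 days after sowing in upland soil.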

Stellaria media [2] = assay: Upland field foliage treatment (Test Example 1); type: in vivo; details: foliage treatment 14th day after sowing, wettable powder, 1 kg active ingredient per hectare, evaluated 21st day after application
Summary of the method: as §2

Chenopodium album [3] = assay: Upland field foliage treatment (Test Example 1); type: in vivo; details: foliage treatment 14th day after sowing, wettable powder, 1 kg active ingredient per hectare, evaluated 21st day after application
Summary of the method: as §2

Digitaria adscendens [4] = assay: Upland field foliage treatment (Test Example 1); type: in vivo; details: foliage treatment 14th day after sowing, wettable powder, 1 kg active ingredient per hectare, evaluated 21st day after application
Summary of the method: as §2

soybean (Glycine max) [5] = assay: Upland field foliage treatment (Test Example 1), crop; type: in vivo; details: foliage treatment 14th day after sowing, 1 kg active ingredient per hectare, evaluated 21st day, lower index = higher safety
Summary of the method: as §2

[6] = test system: wheat (Triticum aestivum); assay: as above; type: in vivo; details: foliage treatment 14th day after sowing, 1 kg active ingredient per hectare, evaluated 21st day, lower index = higher safety
Summary of the method: as §2

Setaria viridis [7] = assay: Upland soil treatment (Test Example 2); type: in vivo; details: soil surface treatment next day after sowing, wettable powder, 1 kg active ingredient per hectare, evaluated 21st day after application
Summary of the method: (§3)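 Scored 21 days post-application on an index scale where higher values mean greater herbicidal effect on weeds and lower values mean greater crop safety. Treatment was a water-diluted wettable powder sprayed evenly onto the soil surface at 1 kg active ingredient per hectare, one day after seeding.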

Stellaria media [8] = assay: Upland soil treatment (Test Example 2); type: in vivo; details: soil surface treatment next day after sowing, wettable powder, 1 kg active ingredient per hectare, evaluated 21st day after application
Summary of the method: as §3

Chenopodium album [9] = assay: Upland soil treatment (Test Example 2); type: in vivo; details: soil surface treatment next day after sowing, wettable powder, 1 kg active ingredient per hectare, evaluated 21st day after application
Summary of the method: as §3

Digitaria adscendens [10] = assay: Upland soil treatment (Test Example 2); type: in vivo; details: soil surface treatment next day after sowing, wettable powder, 1 kg active ingredient per hectare, evaluated 21st day after application
Summary of the method: as §3

Echinochloa spp. = assay: Paddy field treatment (Test Example 3); type: in vivo, Echinochloa crusgalli; details: paddy pot, submerged 4 cm, dropped on water surface 10th day after transplantation, 1 kg active ingredient per hectare, evaluated 21st day
Summary of the method: as §1

soybean (Glycine max) [11] = assay: Upland soil treatment (Test Example 2), crop; type: in vivo; details: soil surface treatment next day after sowing, 1 kg active ingredient per hectare, evaluated 21st day, lower index = higher safety
Summary of the method: as §3

[12] = test system: wheat (Triticum aestivum); assay: Upland soil treatment (Test Example 2), crop; type: in vivo; details: soil surface treatment next day after sowing, 1 kg active ingredient per hectare, evaluated 21st day, lower index = higher safety
Summary of the method: as §3

[13] = test system: rice (Oryza sative, variety: Koshihikari); assay: Paddy field treatment (Test Example 3), crop; type: in vivo, Oryza sativa; details: transplanted rice two-leaf period, water surface treatment 10th day after transplantation, 1 kg active ingredient per hectare, evaluated 21st day, lower index = higher safety
Summary of the method: as §1

Compound	Herbicidal activity Monochoria vaginalis (Monochoria vaginalis)	Herbicidal activity Scirpus juncoides (Scirpus juncoides)	Herbicidal activity Ammannia multiflora (Ammannia multiflora)	Herbicidal activity Setaria viridis (Setaria viridis [1])	Herbicidal activity Stellaria media (Stellaria media [2])	Herbicidal activity Chenopodium album (Chenopodium album [3])	Herbicidal activity Digitaria adscendens (Digitaria adscendens [4])	Herbicidal activity Glycine max (soybean (Glycine max) [5])	Herbicidal activity Triticum aestivum [6]	Herbicidal activity Setaria viridis (Setaria viridis [7])	Herbicidal activity Stellaria media (Stellaria media [8])	Herbicidal activity Chenopodium album (Chenopodium album [9])	Herbicidal activity Digitaria adscendens (Digitaria adscendens [10])	Herbicidal activity Echinochloa spp. (Echinochloa spp.)	Herbicidal activity Glycine max (soybean (Glycine max) [11])	Herbicidal activity Triticum aestivum [12]	Herbicidal activity Oryza sativa [13]
COC=C(Cn1nc(-c2cc(Cl)ccc2Cl)c(Cl)c1C)C(=O)OC [Compound 22]	5 (herbicidal effect of not less than 90% by weight)	5 (herbicidal effect of not less than 90% by weight)	5 (herbicidal effect of not less than 90% by weight)	4 (herbicidal effect of not less than 70% by weight and less than 90% by weight)	5 (herbicidal effect of not less than 90% by weight)	5 (herbicidal effect of not less than 90% by weight)	5 (herbicidal effect of not less than 90% by weight)	0 (herbicidal effect of not less than 0% by weight and less than 10% by weight)	0 (herbicidal effect of not less than 0% by weight and less than 10% by weight)	5 (herbicidal effect of not less than 90% by weight)	5 (herbicidal effect of not less than 90% by weight)	5 (herbicidal effect of not less than 90% by weight)	5 (herbicidal effect of not less than 90% by weight)	5 (herbicidal effect of not less than 90% by weight)	0 (herbicidal effect of not less than 0% by weight and less than 10% by weight)	0 (herbicidal effect of not less than 0% by weight and less than 10% by weight)	1 (herbicidal effect of not less than 10% by weight and less than 30% by weight)
COC=C(Cn1nc(-c2c(Cl)cccc2Cl)c(Cl)c1C)C(=O)OC [Compound 23]	4 (herbicidal effect of not less than 70% by weight and less than 90% by weight)	3 (herbicidal effect of not less than 50% by weight and less than 70% by weight)	5 (herbicidal effect of not less than 90% by weight)	4 (herbicidal effect of not less than 70% by weight and less than 90% by weight)	5 (herbicidal effect of not less than 90% by weight)	4 (herbicidal effect of not less than 70% by weight and less than 90% by weight)	4 (herbicidal effect of not less than 70% by weight and less than 90% by weight)	0 (herbicidal effect of not less than 0% by weight and less than 10% by weight)	0 (herbicidal effect of not less than 0% by weight and less than 10% by weight)	4 (herbicidal effect of not less than 70% by weight and less than 90% by weight)	4 (herbicidal effect of not less than 70% by weight and less than 90% by weight)	4 (herbicidal effect of not less than 70% by weight and less than 90% by weight)	4 (herbicidal effect of not less than 70% by weight and less than 90% by weight)	3 (herbicidal effect of not less than 50% by weight and less than 70% by weight)	0 (herbicidal effect of not less than 0% by weight and less than 10% by weight)	0 (herbicidal effect of not less than 0% by weight and less than 10% by weight)	0 (herbicidal effect of not less than 0% by weight and less than 10% by weight)
COC=C(Cn1nc(-c2ccc(Cl)cc2Cl)c(Cl)c1C)C(=O)OC [Compound 21]	5 (herbicidal effect of not less than 90% by weight)	4 (herbicidal effect of not less than 70% by weight and less than 90% by weight)	5 (herbicidal effect of not less than 90% by weight)	4 (herbicidal effect of not less than 70% by weight and less than 90% by weight)	5 (herbicidal effect of not less than 90% by weight)	5 (herbicidal effect of not less than 90% by weight)	5 (herbicidal effect of not less than 90% by weight)	1 (herbicidal effect of not less than 10% by weight and less than 30% by weight)	0 (herbicidal effect of not less than 0% by weight and less than 10% by weight)	4 (herbicidal effect of not less than 70% by weight and less than 90% by weight)	4 (herbicidal effect of not less than 70% by weight and less than 90% by weight)	4 (herbicidal effect of not less than 70% by weight and less than 90% by weight)	4 (herbicidal effect of not less than 70% by weight and less than 90% by weight)	5 (herbicidal effect of not less than 90% by weight)	0 (herbicidal effect of not less than 0% by weight and less than 10% by weight)	0 (herbicidal effect of not less than 0% by weight and less than 10% by weight)	0 (herbicidal effect of not less than 0% by weight and less than 10% by weight)
COC=C(Cn1nc(-c2ccc(Cl)cc2)c(C)c1C)C(=O)OC [Compound 35]	4 (herbicidal effect of not less than 70% by weight and less than 90% by weight)	3 (herbicidal effect of not less than 50% by weight and less than 70% by weight)	4 (herbicidal effect of not less than 70% by weight and less than 90% by weight)	4 (herbicidal effect of not less than 70% by weight and less than 90% by weight)	4 (herbicidal effect of not less than 70% by weight and less than 90% by weight)	4 (herbicidal effect of not less than 70% by weight and less than 90% by weight)	4 (herbicidal effect of not less than 70% by weight and less than 90% by weight)	0 (herbicidal effect of not less than 0% by weight and less than 10% by weight)	0 (herbicidal effect of not less than 0% by weight and less than 10% by weight)	4 (herbicidal effect of not less than 70% by weight and less than 90% by weight)	4 (herbicidal effect of not less than 70% by weight and less than 90% by weight)	4 (herbicidal effect of not less than 70% by weight and less than 90% by weight)	4 (herbicidal effect of not less than 70% by weight and less than 90% by weight)	3 (herbicidal effect of not less than 50% by weight and less than 70% by weight)	0 (herbicidal effect of not less than 0% by weight and less than 10% by weight)	0 (herbicidal effect of not less than 0% by weight and less than 10% by weight)	0 (herbicidal effect of not less than 0% by weight and less than 10% by weight)

— patent US6809065B2, “Herbicide containing substituted pyrazole derivative as active ingredient” (SDS Biotech K.K., priority 2001, dated 2004)
